Test results reported in patent US6441193B1, “Estrogen agonists/antagonists” (Pfizer Inc., priority 1995, dated 2002).

Legend:
prostate = experiment: Effect on prostate weight (wet prostate weight after 14 days of daily subcutaneous injection); assay type: in vivo, rat; details: male Sprague-Dawley rats, s.c. daily for 14 days
Method: Male Sprague-Dawley rats, three months of age are administered by subcutaneous injection either vehicle (10% ethanol in water), estradiol (30 μg/kg), testosterone (1 mg/kg) or a compound of formula I daily for 14 days (n=6/group). After 14 days the animals are sacrificed, the prostate is removed and the wet prostate weight is determined. Mean weight is determined and statistical significance (p<0.05) is determined compared to the vehicle-treated group using Student's t-test.

ventral prostate = details: male rats; cited from earlier work

With `C[C@]12CC[C@H]3[C@@H](CCC4=CC(=O)CC[C@@]43C)[C@@H]1CC[C@@H]2O` [Testosterone, testosterone] the “wet prostate weight compared to vehicle” value (prostate; testosterone 1 mg/kg) was “no effect”.

For `C[C@]12CC[C@@H]3c4ccc(O)cc4CC[C@H]3[C@@H]1CC[C@@H]2O` [estrogen, estradiol], the “wet prostate weight compared to vehicle” value (prostate; 30 μg/kg) was “significantly reduces prostate weight”.

In the case of `O=C(c1ccc(OCCN2CCCCC2)cc1)c1c(-c2ccc(O)cc2)sc2cc(O)ccc12` [raloxifene, 6-hydroxy-2-(4-hydroxyphenyl)-3-[4-(2-piperidinoethoxy)benzoyl] benzo[b] thiophene], the “effect on ventral prostate” value (ventral prostate) is listed as “regression of the ventral prostate”.
